From ChEMBL document CHEMBL3351915 (Bioorg Med Chem Lett, 2015)
pIC50: −log10 of the molar value.

How the values were obtained:
CYP3A4 [1] = biological target: T1, CYP3A4 (Homo sapiens, UniProt P08684); test: Inhibition of human recombinant CYP3A4 expressed in insect cell microsomes preincubated for 10 mins at 0.1 uM by fluorescence assay; conditions: recombinant enzyme
CYP3A4 [2] = biological target: T1, CYP3A4; test: Inhibition of human recombinant CYP3A4 expressed in insect cell microsomes preincubated for 10 mins at 1 uM by fluorescence assay; conditions: recombinant enzyme
CYP3A4 [3] = biological target: T1, CYP3A4; test: Inhibition of human recombinant CYP3A4 expressed in insect cell microsomes preincubated for 10 mins at 10 uM by fluorescence assay; conditions: recombinant enzyme
MDR1 (P-gp, ABCB1) [4] = biological target: T2, MDR1 (P-gp, ABCB1) (Homo sapiens, UniProt P08183); test: Inhibition of human recombinant MDR1 in cell membrane fraction preincubated for 5 mins at 100 uM measured after 40 mins by Pgp-Glo luciferase assay; assay type: cell-based
MDR1 (P-gp, ABCB1) [5] = biological target: T2, MDR1 (P-gp, ABCB1); test: Inhibition of human recombinant MDR1 in cell membrane fraction preincubated for 5 mins at 0.1 uM measured after 40 mins by Pgp-Glo luciferase assay; assay type: cell-based
[6] = Oral bioavailability in human; conditions: in vivo
[7] = biological target: ATP-dependent translocase ABCB1 (Homo sapiens, UniProt P08183); test: Inhibition of human recombinant MDR1 in cell membrane fraction preincubated for 5 mins measured after 40 mins by Pgp-Glo luciferase assay; assay type: cell-based
MDR1 (P-gp, ABCB1) [8] = biological target: T2, MDR1 (P-gp, ABCB1); test: Inhibition of human recombinant MDR1 in cell membrane fraction preincubated for 5 mins at 10 uM measured after 40 mins by Pgp-Glo luciferase assay; assay type: cell-based
Plasma = test: Total steady state plasma concentration in Sprague-Dawley rat at 5 mg/kg, po; assay type: ADME, organism-based; parameters: dose 5 mg/kg, route oral; conditions: in vivo
[9] = Absolute bioavailability in dog; assay type: ADME, organism-based, Canis lupus familiaris; conditions: in vivo
MDR1 (P-gp, ABCB1) [10] = biological target: T2, MDR1 (P-gp, ABCB1); test: Inhibition of human recombinant MDR1 in cell membrane fraction preincubated for 5 mins at 1 uM measured after 40 mins by Pgp-Glo luciferase assay; assay type: cell-based
[11] = Fraction unbound in Sprague-Dawley rat at 5 mg/kg, po; conditions: in vivo
MDR1 (P-gp, ABCB1) [12] = biological target: T2, MDR1 (P-gp, ABCB1); test: Inhibition of human recombinant MDR1 in cell membrane fraction preincubated for 5 mins at 0.01 uM measured after 40 mins by Pgp-Glo luciferase assay; assay type: cell-based

T2 sequence (P08183 whole entry): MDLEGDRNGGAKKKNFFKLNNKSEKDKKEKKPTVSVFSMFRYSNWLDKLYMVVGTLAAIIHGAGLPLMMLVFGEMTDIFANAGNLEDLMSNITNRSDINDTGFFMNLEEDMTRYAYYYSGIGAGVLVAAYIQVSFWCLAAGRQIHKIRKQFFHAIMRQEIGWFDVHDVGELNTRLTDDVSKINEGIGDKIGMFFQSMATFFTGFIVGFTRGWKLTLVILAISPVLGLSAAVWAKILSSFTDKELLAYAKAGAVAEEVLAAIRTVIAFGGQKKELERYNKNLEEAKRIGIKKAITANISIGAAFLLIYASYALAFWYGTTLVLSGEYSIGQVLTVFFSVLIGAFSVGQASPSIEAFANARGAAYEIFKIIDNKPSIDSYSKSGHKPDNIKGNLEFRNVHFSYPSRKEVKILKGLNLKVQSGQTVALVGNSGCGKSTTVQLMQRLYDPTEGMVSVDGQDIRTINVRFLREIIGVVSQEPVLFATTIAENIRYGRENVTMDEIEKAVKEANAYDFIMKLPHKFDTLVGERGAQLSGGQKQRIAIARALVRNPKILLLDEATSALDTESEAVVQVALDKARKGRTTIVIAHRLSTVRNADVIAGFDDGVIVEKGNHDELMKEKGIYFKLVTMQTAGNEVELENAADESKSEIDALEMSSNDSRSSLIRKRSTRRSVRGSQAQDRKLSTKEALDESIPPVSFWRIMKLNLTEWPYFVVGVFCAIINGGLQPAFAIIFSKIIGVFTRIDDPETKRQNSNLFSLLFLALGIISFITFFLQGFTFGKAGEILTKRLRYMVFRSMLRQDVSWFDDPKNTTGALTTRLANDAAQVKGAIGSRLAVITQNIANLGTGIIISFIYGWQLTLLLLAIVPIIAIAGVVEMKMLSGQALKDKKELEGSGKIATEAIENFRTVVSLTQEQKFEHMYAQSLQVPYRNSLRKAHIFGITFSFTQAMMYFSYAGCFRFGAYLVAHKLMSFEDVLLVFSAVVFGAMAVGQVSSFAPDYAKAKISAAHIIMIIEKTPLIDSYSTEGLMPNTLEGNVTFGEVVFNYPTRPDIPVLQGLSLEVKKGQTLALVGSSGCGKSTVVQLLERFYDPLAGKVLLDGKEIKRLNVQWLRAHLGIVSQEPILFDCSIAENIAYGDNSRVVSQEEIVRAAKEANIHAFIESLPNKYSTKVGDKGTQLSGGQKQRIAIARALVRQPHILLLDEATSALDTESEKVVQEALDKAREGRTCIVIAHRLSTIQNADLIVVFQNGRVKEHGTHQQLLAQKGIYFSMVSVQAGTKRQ
T1 sequence (P08684 whole entry): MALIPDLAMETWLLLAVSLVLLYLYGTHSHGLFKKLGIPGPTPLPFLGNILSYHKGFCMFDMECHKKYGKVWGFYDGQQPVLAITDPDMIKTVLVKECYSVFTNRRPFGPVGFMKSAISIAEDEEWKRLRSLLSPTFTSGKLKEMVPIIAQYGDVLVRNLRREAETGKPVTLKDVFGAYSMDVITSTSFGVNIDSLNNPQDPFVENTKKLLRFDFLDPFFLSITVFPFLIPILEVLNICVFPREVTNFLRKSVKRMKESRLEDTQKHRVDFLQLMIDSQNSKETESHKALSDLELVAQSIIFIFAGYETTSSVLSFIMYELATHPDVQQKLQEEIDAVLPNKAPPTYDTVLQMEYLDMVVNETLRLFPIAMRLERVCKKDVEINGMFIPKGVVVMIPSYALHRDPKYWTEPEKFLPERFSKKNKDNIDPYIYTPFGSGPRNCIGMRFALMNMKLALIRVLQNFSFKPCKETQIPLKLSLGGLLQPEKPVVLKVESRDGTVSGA
ATP-dependent translocase ABCB1, sequence (P08183 whole entry): as the sequence (P08183 whole entry) above

**Q.** For `CC(=O)N1CCN(c2ccc(OCC3COC(Cn4ccnc4)(c4ccc(Cl)cc4Cl)O3)cc2)CC1` (stereo not drawn) [KETOCONAZOLE], which inhibition at 0.1 µM (CYP3A4 [1]) is on record?
**A.** The inhibition at 0.1 µM was 33.9%.

**Q.** What about the inhibition at 1 µM (CYP3A4 [2]) of the same molecule?
**A.** Its inhibition at 1 µM is 87.2%.

**Q.** And the inhibition at 10 µM (CYP3A4 [3])?
**A.** Its inhibition at 10 µM is 92.3%.

**Q.** With `COc1cc2c(cc1OC)C(=O)C(CC1CCN(Cc3ccccc3)CC1)C2` (stereo not drawn) [DONEPEZIL] as the molecule, how does the inhibition at 40 min, 100 µM (MDR1 (P-gp, ABCB1) [4]) read?
**A.** The inhibition at 40 min, 100 µM was 76%.

**Q.** What about the inhibition at 40 min, 0.1 µM (MDR1 (P-gp, ABCB1) [5]) of the same molecule?
**A.** The inhibition at 40 min, 0.1 µM was under 15%.

**Q.** What about the bioavailability [6] of the same molecule?
**A.** The bioavailability was 92%.

**Q.** What about the pIC50 [7] of the same molecule?
**A.** Its pIC50 is 4.46.

**Q.** And the inhibition at 40 min, 10 µM (MDR1 (P-gp, ABCB1) [8])?
**A.** The inhibition at 40 min, 10 µM was 23.5%.

**Q.** What about the concentration (Plasma) of the same molecule?
**A.** Its concentration is 60 nM.

**Q.** And the bioavailability [9]?
**A.** The bioavailability was 50%.

**Q.** What about the inhibition at 40 min, 1 µM (MDR1 (P-gp, ABCB1) [10]) of the same molecule?
**A.** The inhibition at 40 min, 1 µM was 17.8%.

**Q.** And the fraction unbound [11]?
**A.** The fraction unbound was 0.04.

**Q.** And the inhibition at 40 min, 0.01 µM (MDR1 (P-gp, ABCB1) [12])?
**A.** The inhibition at 40 min, 0.01 µM was under 15%.
